# Results: PubChem BioAssay AID1902 (Broad Institute, 2009)
# Calls of active or inactive are those of the source.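 The calls were made as follows: active = EC50 no more than a set limit of log units above the highest dose; inactive = the rest.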
# Molecular target: S. pyogenes SKKanGAS, kanamycin survival, BacTiterGlo, 6 h
# Experiment: SKKanGAS survival reduction under kanamycin, dose response, streptokinase promoter inhibitor project, SKKanGAS strain, luminescence, dose confirmation (AID 1902);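 also: lower survival reflects blocked streptokinase promoter driving kanamycin resistance gene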
row,SMILES,EC50
1,O=C(Nc1nc(-c2ccccn2)cs1)c1ccc(S(=O)(=O)N2CCCCC2)cc1,1480 nM
2,CCOc1ccccc1NC(=O)c1nc(S(=O)(=O)Cc2ccccc2)ncc1Cl,8850 nM
3,Cc1n[nH]c(C)c1CCCOc1ccccc1,5140 nM
4,CCOC(=O)N1CCN(C(=O)c2ccc3c(c2)NC(=O)/C(=C\c2ccc(OC)c(OC)c2)S3)CC1,1100 nM
5,CC(C)(C)c1cc[n+](C2=C([O-])c3ccccc3C(=O)/C2=N\S(=O)(=O)c2ccccc2)cc1,3200 nM
6,Cc1ccc(-c2nc3c(Cl)cc(Cl)cc3c(=O)n2O)cc1,808 nM
7,Cc1ccc(C(=O)c2c(C)oc3c2C(=O)C(=O)c2ccccc2-3)cc1,801 nM
8,N=c1c2c(-c3ccccc3)c(-c3ccccc3)oc2ncn1Cc1ccco1,3270 nM
9,Cc1ccc(C)c(-c2nnc(NC(=O)COc3ccccc3)o2)c1,1700 nM
10,S=c1[nH]nc(-c2cccs2)n1/N=C/c1cn(-c2ccccc2)nc1-c1ccccc1,7780 nM
11,COc1ccc(Oc2nc(-c3ccccn3)nc3ccccc23)cc1,6490 nM
12,CC(C)S(=O)(=O)c1csc(NC(=O)Nc2cc(Cl)ccc2Cl)c1Cl,1650 nM
13,CCCCN(CC)S(=O)(=O)c1ccc(C(=O)Nc2nnc(-c3ccccc3Cl)o2)cc1,226 nM
14,CNC[C@@H](CC1CCCCC1)NC[C@H](CC(C)C)NCCc1cccc(C(F)(F)F)c1,5400 nM
15,O=c1c2c(n3nnnc3n1Cc1ccccc1)-c1ccccc1CC21CCCC1,1670 nM
16,CC(C)CCC(CCNCc1ccccn1)c1ccc(Cl)cc1 (centres undefined),13200 nM
17,CCCCN(CCCC)C(=S)N/N=C/c1c(C)[nH]n(-c2ccccc2)c1=O,399 nM
18,N#C/C(=N\Nc1ccc(S(=O)(=O)N2CCOCC2)cc1)C(N)=S,> 15000 nM (inactive)
19,COc1ccc(NC(=O)C(=O)NNC(=O)C(C)Oc2ccc(Cl)cc2Cl)cc1 (centres undefined),3310 nM
20,O=c1[nH]c2ccc(Cl)cc2c(-c2ccccc2)c1N1CCN(c2ccccn2)CC1,2830 nM

row,SMILES,EC50
1,FC(F)(F)c1cc(CCN2C(=S)NC[C@@H]2CC2CCCCC2)cc(C(F)(F)F)c1,3700 nM
2,Oc1ccc(Br)cc1/C=N/NC(=S)NCCc1ccccc1,1930 nM
3,Cn1c(N)c(C(=O)COC(=O)/C=C/c2ccc(OC(F)F)cc2)c(=O)n(C)c1=O,1470 nM
4,Oc1ccc(Br)cc1/C=N/Nc1ncc(-c2ccccc2)cn1,1700 nM
5,Cc1ccc(C)c(S(=O)(=O)N2CCN(Cc3ccc(O)c4ncccc34)CC2)c1,2800 nM
6,O=C(/C=C1\NC2(CCCC2)Cc2ccccc21)C(=O)N/N=C/c1ccccc1O,2270 nM
7,CC(C)(C)c1cc(NCCCn2ccnc2)n2ncc(-c3ccc(Cl)cc3)c2n1,2380 nM
8,O=[N+]([O-])c1ccc(/C=N/NC(=S)Nc2ccc(Cl)cc2Cl)s1,1750 nM
9,COC(=O)c1sc(-c2ccc(C(C)(C)C)cc2)cc1NC(=O)CSCC(=O)O,3910 nM
10,CC(C)(C)c1nnc(N/N=C/c2cc(Br)ccc2O)n(N)c1=O,2120 nM
11,COc1ccccc1CNC(=O)CSc1nc(=O)n(Cc2ccncc2)c2c1CCC2,> 15000 nM (inactive)
12,C[C@]12CCC(O)CC1CCC1C2CC[C@]2(C)C(c3cc(C(F)(F)F)n[nH]3)CCC12 (some centres undefined),1900 nM
13,CCOc1ccc(/C=N/NC(=O)Cc2csc(Nc3cccc(C(F)(F)F)c3)n2)cc1,6350 nM
14,CCCCc1ccc(NC(=O)NCc2ccccn2)cc1,> 15000 nM (inactive)
15,CC(C)(C)OC(=O)[C@H](Cc1ccccc1)NC(=O)c1[nH]cnc1C(=O)Nc1ccc(Cl)cc1,3520 nM
16,OC(CN=c1sc2ccccc2n1CC(O)COc1ccccc1)COc1ccccc1 (centres undefined),6280 nM
17,Cc1cc(N2C(=O)C(O)=C(C(=O)c3cc4ccccc4o3)C2c2ccc(Br)cc2)no1 (centres undefined),1240 nM
18,O=C(CSc1nc(-c2ccc(Cl)cc2)[nH]c(=O)n1)Nc1cccc(Cl)c1,2350 nM
19,COc1ccc(Oc2nc(C(F)(F)F)nc3ccccc23)cc1,7140 nM
